Values of other authors in paper PMC11206399, “In Vitro/In Vivo Correlation of Two Extended-Release Cilostazol Formulations” (Pharmaceuticals, 2024).
In brackets after ≈: the same amount, converted by molar mass.

Legend:
[1] = set-up: method as in PMID 4074422
[2] = tested on: Caco-2 cell monolayer; set-up: method as in PMID 14603510; details: Caco-2 cell monolayer model
[3] = set-up: method as in PMID 10702883; details: humans, oral 100 mg Cilostazol tablet
[4] = tested on: platelet aggregation; set-up: method as in doi:10.1111/j.1527-3466.1993.tb00200.x

O=C1CCc2cc(OCCCCc3nnnn3C3CCCCC3)ccc2N1 [Cilostazol]
water solubility [1]: 3.34 µg/mL (≈ 9.04 µM) | permeability coefficient [2]: above 1 × 10^−6 cm/s | increase of AUC of Cilostazol with high-fat breakfast compared with the fasted condition [3]: 25% | increase of Cmax of Cilostazol with high-fat breakfast compared with the fasted condition [3]: 90%

O=c1ccc2cc(OCCCCc3nnnn3C3CCCCC3)ccc2[nH]1 [OPC-13015, 3,4-dehydrocilostazol]
potency of inhibiting platelet aggregation compared with cilostazol [4]: 3 fold

O=C1CCc2cc(OCCCCc3nnnn3[C@H]3CC[C@H](O)CC3)ccc2N1 [OPC-13213, 4′-trans-hydroxy-cilostazol]
fold less potent than Cilostazol (inhibiting platelet aggregation) [4]: 3 fold
